From patent publication US9522121B2, “Aqueous-core lipid nanocapsules for encapsulating hydrophilic and/or lipophilic molecules” (UNIVERSITE D'ANGERS, priority 2007, dated 2016)

How the values were obtained:
[1] = tested on: NIH/3T3 cells; experiment: Cytotoxicity of particles (P) without active ingredient, cell survival by MTT test; assay type: cell-based, Mus musculus; design: unit: % of control; details: DMSO, control = 100.00
Description: The cytotoxicity of particles (P) prepared according to 1.2 hereabove—without any active ingredient encapsulated (hereafter called NCB)—was assessed on NIH/3T3 cells (fibroblasts of mice Mus musculus). The […] were exposed to various particle concentrations, during 4, 24, 48 or 72 hours. The cell survival was determined by the MTT test.

[2] = Doxorubicin release kinetics from particles (P), dialysis against PBS; assay type: physicochemical; details: DOX-loaded particles (P), dialysis 15 kDa membrane, PBS pH 7.4, 37° C.
Description: To establish the drug release kinetics (see FIG. 8), 2 mL of freshly prepared suspension containing DOX-loaded particle (P), enclosed into a dialysis 15 kDa membrane (Spectra/Por® Membranes, Fisher Bioblock Scientific, Illkirch, France), were added to 40 mL of phosphate buffered saline (PBS, pH 7.4) from Sigma. The flack was weakly mechanically stirred (125 rpm) in darkness, at 37° C. (in a boiler, Julabo SW22, JULABO Labortechnik GmbH, Seelbach, Germany). Next, 500 μL of release medium were collected at specified time points and the DOX concentrations were determined by spectrofluorimetry, as previously described. This collected volume was systematically replaced by the same volume of fresh PBS for insuring the “sink” experimental conditions.

[3] = Encapsulation yield, indirect quantification in external water after centrifugation; assay type: physicochemical; details: for encapsulation yield (plateau): hydrophilic molecule in aqueous core, tp = 2 h, highest monomer (TDI) contents
From the text: (i) Hydrophilic materials, eventually, have to be shared out into the w/o nanoemulsions water droplets, and it may be done right from the start included in the water phase of the macro-emulsions preparations. Another higher effective manner consists in injecting a very small volume (no more than 2% (v./v.)) of very concentrated aqueous solution, in the microemulsion maintained at the PIT, after the temperature cycling, and before the isopentane dilution. The droplet injected in the (still) stirred microemulsion, very rapidly integrates the aqueous part of the bicontinuous network. As a result of the oil dilution, the nanoemulsion immediately forms, allowing a very homogeneous dispersion in oil of the injected hydrophilic molecule. Incorporating the hydrophilic species through this original manner, eventually prevents the molecules degradation during processing potentially due to the temperature cycling treatment. The hydrophilic model molecules were chosen with very different molecular weight: The first one is a labile dye, methylene blue (MB), the second is a protein, the bovin serum albumin fluorecein isothiocyanate labeled (BSA-FITC) and the last one is a fluorescent compound, Doxorubicin Chlorhydrate (DOX), which is an anti-cancer drug.
(ii) On the other hand, the lipophilic species were introduced in the oil phase of the nanoemulsion, after the chosen time of polymerization (to maximally prevent the potential interactions with the monomer), and before the stage of isopentane evaporation. Thereby, after the complete isopentane evaporation, the lipophilic added materials will be equally shared onto the droplets enclosed in the residual mineral oil, that is, trapped in the amorphous oil/non-ionic surfactant matrix. It finally appears as a marker of the residual mineral oil location, and determining a significant encapsulation yield should support the proposed multi-functional water/oil structure. […] It is important to note here, that these processes of nanocapsule formulation containing hydrophilic and lipophilic agents can be still considered as only involving a low quantity of energy (often called ‘low-energy’ methods). […]
All the quantifications were performed following an indirect method, after separating the external water to the nanocapsules by centrifugation (30 min, 14500 rpm), it was freeze-dried (RP2V, SGD, Le Coudray Saint-Germer, France) to ensure the destruction of the potentially remaining nanocapsules (and also to prevent their additional light adsorption in the quantification process). Next, the freeze-dried samples are solubilized in dichloromethane (DCM), and the different incorporated molecules except DOX which are present in the external water are simply quantified using a Spectrophotometer UV-visible Uvikon 922 Spectrophotometer (Bio-Tek Koutron instruments, Saint-Quentin-en-Yvelines, France). DOX was quantified using a spectrofluorimeter (Fluoroskan Ascent FL, type 374, Thermo Electron Corporation, Finland). […]
Owing to the real challenge that constitutes the encapsulation of hydrophilic agent into nanocapsules themselves dispersed in aqueous continuous phase, the first result will concern the extent in which the selected hydrophilic species, methylene blue and BSA-FITC, can be encapsulated into such colloids. The molecules incorporation during the nanoemulsion generation step as well as the molecule quantification for determining the encapsulation yield, follow the above-described procedures. […]

C[S+](C)[O-] [DMSO]
cell survival (MTT test), mean ([1]; 4 H exposure): 46.75
cell survival (MTT test), mean ([1]; 24 H exposure): 10.22
cell survival (MTT test), mean ([1]; 48 H exposure): 4.79
cell survival (MTT test), mean ([1]; 72 H exposure): 5.00

COc1cccc2c1C(=O)c1c(O)c3c(c(O)c1C2=O)C[C@@](O)(C(=O)CO)C[C@@H]3O[C@H]1C[C@H](N)[C@H](O)[C@H](C)O1 [DOX, Doxorubicin Chlorhydrate]
release with time (maximum given by the curve fit) [2]: ~100%
yield of encapsulated doxorubicin ([3]; in aqueous droplets (no monomer)): 30%
yield of encapsulated doxorubicin ([3]; in polymeric nanocapsules (interfacial polymerization with tolylene 2,4-diisocyanate)): 70%

CN(C)c1ccc2nc3ccc(=[N+](C)C)cc-3sc2c1 [MB, Methylene Blue]
encapsulation yield (plateau) [3]: about 0.9

Oc1ccc2ccccc2c1N=Nc1ccc(N=Nc2ccccc2)cc1 [RS, red Soudan III]
encapsulation yield ([3]; lipophilic molecule in oil shell, simultaneously encapsulated with MB, tp 2 hours, no influence of monomer amount): around 0.92

Bovine Serum Albumin-Fluorescein Isothiocyanate labeled [BSA-FITC]
encapsulation yield (plateau) [3]: about 0.9
